Here are results for two compounds from patent publication US4536592A, “2-Substituted prostaglandins” (G. D. Searle & Co., priority 1984, dated 1985).

The data set in a line: Diarrheogenic activity test (rat, intragastric, all or none diarrhea assessment). To be noted: doses 100 to 3000 microgram/kg. The format is in vivo, Charles River rats. On the procedure:
Diarrhea is an undesirable side effect commonly associated with prostaglandins.
Groups of six adult male Charles River rats, weight range 180 to 200 grams are fasted for 24 hours prior to administering the test substance. The prostaglandin to be tested is administered intragastrically in iso-osmotic phosphate buffer at a volume of 10 ml/kg at doses ranging from 100 to 3000 microgram/kg. Control animals receive only the vehicle. The rats are placed in individual wire mesh cages and the trays lined with brown paper. Diarrhea is assessed at hourly intervals on an all or none basis for up to eight hours after administration of the prostaglandin. Diarrhea is defined as any loose or watery stool. ED50 value is assessed for each hourly diarrheogenic response.

`CCCCC(C)(O)C/C=C/[C@H]1[C@H](O)CC(=O)[C@@H]1CCCCCC(C)C(=O)OC` (relative stereo) [Compound II]: the “Rat 8 hour Diarrheogenic ED50” value is greater than 3.2 mg/kg.
As for `CCCCC(C)(O)C/C=C/[C@H]1[C@H](O)CC(=O)[C@@H]1CCCCCCC(=O)OC` (relative stereo) [Compound I], the TD50 at 8 h (in vivo, po, read-out: Rat 8 hour Diarrheogenic ED50) came to 0.366 mg/kg.
